pIC50: −log10 of the molar value. Read-outs that look alike come from different tables or passages of the source.
Experiments:
EGFR (C797S L858R) = target: T1, EGFR (C797S L858R) (Homo sapiens, UniProt P00533, C797S/L858R); experiment: Inhibition of EGFR (C797S L858R) biochemical enzymatic activity (HTRF); settings: EGFR (C797S L858R), 1 mM ATP, 1 h at room temperature, read-out: IC50 @L858-C797S
T1 construct: purchased signalchem
Summary of the method: (§1)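 HTRF kinase assay: each EGFR enzyme phosphorylated 1 μM biotinylated TK substrate with 1 mM ATP in buffer containing 5 mM MgCl2, 1 mM MnCl2, 0.01% CHAPS, 1 mM DTT, 0.5% DMSO. After 1 h at room temperature, EDTA detection mix stopped the reaction. IC50 came from a four-parameter logistic fit of the 665/615 nm ratio.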

EGFR L858R/T790M = target: T2, EGFR L858R/T790M (Homo sapiens, UniProt P00533, L858R/T790M); experiment: Inhibition of EGFR L858R/T790M biochemical enzymatic activity (HTRF); settings: EGFR L858R/T790M, 1 mM ATP, 1 h at room temperature, read-out: IC50 @L858R-T790M
T2 construct: purchased Carna Bio
Summary of the method: as §1

EGFR L858R = target: T3, EGFR L858R (Homo sapiens, UniProt P00533, L858R); experiment: Inhibition of EGFR L858R biochemical enzymatic activity (HTRF); settings: 1 mM ATP, 1 h at room temperature, read-out: IC50 @L858R
T3 construct: purchased Carna Bio
Summary of the method: as §1

EGFR Exon19Del/T790M = target: T4, EGFR Exon19Del/T790M (Homo sapiens, UniProt P00533, DEL746-750/T790M); experiment: Inhibition of EGFR Exon19Del/T790M biochemical enzymatic activity (HTRF); settings: EGFR Exon19Del/T790M, 1 mM ATP, 1 h at room temperature, read-out: IC50 @Del19-T790M
T4 construct: purchased Carna Bio
Summary of the method: as §1

EGFR Exon19Del = target: T5, EGFR Exon19Del (Homo sapiens, UniProt P00533, DEL746-750); experiment: Inhibition of EGFR Exon19Del biochemical enzymatic activity (HTRF); settings: EGFR Exon19Del, 1 mM ATP, 1 h at room temperature, read-out: IC50 @Del19
T5 construct: purchased Carna Bio
Summary of the method: as §1

[1] = target: T6, EGFR[T790M/C797S/d746-750] (Homo sapiens, UniProt P00533, C797S/DEL746-750/T790M); experiment: Inhibition of EGFR[T790M/C797S/d746-750] biochemical enzymatic activity (HTRF); settings: EGFR[T790M/C797S/d746-750], 1 mM ATP, 1 h at room temperature, read-out: IC50 @T790M - C797S - Del19
T6 construct: purchased Carna Bio
Summary of the method: as §1

[2] = test system: Ba/F3 cells expressing EGFR mutations; experiment: Cell proliferation assay, Ba/F3 cells expressing EGFR mutations (CellTiter-Glo, 72 hours); type: cell-based
Summary of the method: (§2)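 Ba/F3 cells (5000/well) and PC-9 cells (500/well, RPMI1640 with 10% FBS) were plated overnight and then dosed with a compound concentration series. Viable cells were read at day 0 (G0) and after treatment (G3). GI50 came from curve fits of G0-corrected proliferation relative to DMSO.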

A-431 = experiment: Cell proliferation assay, A-431 cells (GI50, Table 6); type: cell-based
Procedure: [Worded in the source for another cell line; this cell line is reported under the same test.] Ba/F3 cells expressing EGFR mutations were seeded in 384-well plates at 5000 cells/well in RPMI1640 medium containing […]. PC-9 at 500 cells/well was seeded into 384-well plates in RPMI1640 medium with 10% FBS. After overnight incubation, the assay plates were dosed with compounds at a series of concentrations. Alongside dosing the assay plates, the day 0 plate was processed using CellTiter-Glo® Luminescent Cell Viability Assay (Promega) to measure the number of viable cells (G0). The assay plates were further incubated for 72 hours and the number of viable cells (G3) was measured. The percentage of proliferation was calculated as: […]=100×(G3 value of sample well−G0 value)/(G3 value of DMSO control−G0 value). The concentration of compound producing 50% proliferation inhibition (GI50) was further calculated in best-fit curves using XLFit software. N/A=not available.

EGFR (d746-750 C797S) = target: T7, EGFR (d746-750 C797S) (Homo sapiens, UniProt P00533, C797S/DEL746-750); experiment: Inhibition of EGFR (d746-750 C797S) biochemical enzymatic activity (HTRF); settings: EGFR (d746-750 C797S), 1 mM ATP, 1 h at room temperature, read-out: IC50 @Del19-C797S
T7 construct: purchased signalchem
Summary of the method: as §1

EGFR[T790M/C797S/L858R] = target: T8, EGFR[T790M/C797S/L858R] (Homo sapiens, UniProt P00533, C797S/L858R/T790M); experiment: Inhibition of EGFR[T790M/C797S/L858R] biochemical enzymatic activity (HTRF); settings: EGFR[T790M/C797S/L858R], 1 mM ATP, 1 h at room temperature, read-out: IC50 @T790M- C797S - L858R
T8 construct: purchased Carna Bio
Summary of the method: as §1

PC-9 = experiment: Cell proliferation assay, PC-9 cells (CellTiter-Glo, 72 hours); type: cell-based; settings: PC9 cells, read-out: GI50 PC9
Summary of the method: as §2

EGFR wild type = target: T9, EGFR wild type (Homo sapiens, UniProt P00533); experiment: Inhibition of EGFR wild type biochemical enzymatic activity (HTRF); settings: EGFR wild type, 1 mM ATP, 1 h at room temperature, read-out: IC50 @WT
T9 construct: purchased Carna Bio
Summary of the method: as §1

[3] = BaF3 cells, EGFR DEL19 - C797S, read-out: GI50 DEL19 - C797S/BaF3
[4] = BaF3 cells, EGFR DEL19 - T790-C797S, read-out: GI50 DEL19 - T790-C797S/BaF3
[5] = BaF3 cells, EGFR L858R - C797S, read-out: GI50 L858R - C797S/BaF3
[6] = BaF3 cells, EGFR L858R - T790-C797S, read-out: GI50 L858R - T790-C797S/BaF3
[7] = BaF3 cells, EGFR L858R - T790M, read-out: GI50 L858R - T790M/BaF3
[8] = BaF3 cells, EGFR L858R, read-out: GI50 L858R/BaF3
[9] = EGFR DEL19 - T790M, read-out: GI50 DEL19 - T790M
[10] = Homo sapiens, A-431, A-431 cells

T9 sequence (P00533 25-1210): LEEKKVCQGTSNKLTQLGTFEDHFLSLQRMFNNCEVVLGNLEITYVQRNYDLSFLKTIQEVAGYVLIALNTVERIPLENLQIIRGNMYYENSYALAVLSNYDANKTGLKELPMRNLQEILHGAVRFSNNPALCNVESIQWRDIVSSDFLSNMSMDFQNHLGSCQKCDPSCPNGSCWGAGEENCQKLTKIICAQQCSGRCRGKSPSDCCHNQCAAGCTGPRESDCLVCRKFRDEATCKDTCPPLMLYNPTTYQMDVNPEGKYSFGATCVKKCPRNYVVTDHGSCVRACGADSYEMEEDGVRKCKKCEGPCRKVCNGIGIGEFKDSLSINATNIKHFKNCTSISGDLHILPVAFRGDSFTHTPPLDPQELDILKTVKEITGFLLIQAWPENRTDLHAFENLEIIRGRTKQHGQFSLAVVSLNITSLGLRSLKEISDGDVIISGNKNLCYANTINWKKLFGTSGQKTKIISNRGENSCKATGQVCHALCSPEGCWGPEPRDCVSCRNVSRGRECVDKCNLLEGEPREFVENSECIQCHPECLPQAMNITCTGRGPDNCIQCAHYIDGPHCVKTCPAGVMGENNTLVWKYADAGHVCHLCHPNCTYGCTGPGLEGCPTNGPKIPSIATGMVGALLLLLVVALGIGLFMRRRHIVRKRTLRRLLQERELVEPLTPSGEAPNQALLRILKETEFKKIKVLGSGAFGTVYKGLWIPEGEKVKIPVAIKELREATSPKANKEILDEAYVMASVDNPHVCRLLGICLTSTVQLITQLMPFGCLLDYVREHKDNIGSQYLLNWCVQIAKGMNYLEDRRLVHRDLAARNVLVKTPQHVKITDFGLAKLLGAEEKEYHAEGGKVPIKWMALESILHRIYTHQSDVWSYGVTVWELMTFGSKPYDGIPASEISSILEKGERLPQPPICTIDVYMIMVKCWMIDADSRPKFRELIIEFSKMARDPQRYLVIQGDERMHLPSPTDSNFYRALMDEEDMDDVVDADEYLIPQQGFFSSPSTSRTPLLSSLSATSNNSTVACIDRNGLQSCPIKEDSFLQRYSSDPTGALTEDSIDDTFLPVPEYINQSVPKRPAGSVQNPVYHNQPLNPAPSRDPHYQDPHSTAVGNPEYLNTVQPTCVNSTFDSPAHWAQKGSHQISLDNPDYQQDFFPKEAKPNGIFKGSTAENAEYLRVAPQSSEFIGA
T1 sequence (P00533 25-1210 C797S/L858R): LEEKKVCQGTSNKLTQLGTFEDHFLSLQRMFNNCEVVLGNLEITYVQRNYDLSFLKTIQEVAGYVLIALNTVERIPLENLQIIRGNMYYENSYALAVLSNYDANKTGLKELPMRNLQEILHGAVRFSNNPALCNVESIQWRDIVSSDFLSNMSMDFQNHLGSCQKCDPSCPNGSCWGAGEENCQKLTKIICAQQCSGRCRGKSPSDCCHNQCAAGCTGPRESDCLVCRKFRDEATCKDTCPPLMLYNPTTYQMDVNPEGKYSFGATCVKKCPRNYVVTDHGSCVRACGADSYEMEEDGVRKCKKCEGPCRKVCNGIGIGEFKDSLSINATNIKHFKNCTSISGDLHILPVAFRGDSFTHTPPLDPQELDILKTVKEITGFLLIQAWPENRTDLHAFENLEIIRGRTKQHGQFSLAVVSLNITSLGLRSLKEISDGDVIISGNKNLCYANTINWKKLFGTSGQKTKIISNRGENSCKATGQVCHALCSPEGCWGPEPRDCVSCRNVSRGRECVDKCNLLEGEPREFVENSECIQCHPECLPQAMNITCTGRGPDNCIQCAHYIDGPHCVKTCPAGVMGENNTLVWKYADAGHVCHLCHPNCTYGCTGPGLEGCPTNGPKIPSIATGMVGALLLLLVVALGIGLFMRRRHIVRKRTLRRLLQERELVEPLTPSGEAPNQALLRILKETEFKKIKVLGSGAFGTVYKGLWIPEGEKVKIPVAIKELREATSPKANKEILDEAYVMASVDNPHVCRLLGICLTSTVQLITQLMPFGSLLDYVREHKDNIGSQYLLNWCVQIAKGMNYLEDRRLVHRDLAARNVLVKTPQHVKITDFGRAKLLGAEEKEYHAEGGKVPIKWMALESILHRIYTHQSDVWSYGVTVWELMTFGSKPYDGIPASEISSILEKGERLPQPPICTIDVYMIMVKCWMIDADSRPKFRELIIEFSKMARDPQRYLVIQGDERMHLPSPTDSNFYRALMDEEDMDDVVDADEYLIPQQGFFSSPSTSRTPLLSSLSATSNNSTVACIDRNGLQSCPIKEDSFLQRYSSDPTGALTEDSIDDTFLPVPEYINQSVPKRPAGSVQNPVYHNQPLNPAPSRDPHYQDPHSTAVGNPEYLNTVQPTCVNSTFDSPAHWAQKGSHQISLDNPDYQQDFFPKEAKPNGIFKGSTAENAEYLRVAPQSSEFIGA
T5 sequence (P00533 with tags, fused parts or gaps DEL746-750 limits assumed): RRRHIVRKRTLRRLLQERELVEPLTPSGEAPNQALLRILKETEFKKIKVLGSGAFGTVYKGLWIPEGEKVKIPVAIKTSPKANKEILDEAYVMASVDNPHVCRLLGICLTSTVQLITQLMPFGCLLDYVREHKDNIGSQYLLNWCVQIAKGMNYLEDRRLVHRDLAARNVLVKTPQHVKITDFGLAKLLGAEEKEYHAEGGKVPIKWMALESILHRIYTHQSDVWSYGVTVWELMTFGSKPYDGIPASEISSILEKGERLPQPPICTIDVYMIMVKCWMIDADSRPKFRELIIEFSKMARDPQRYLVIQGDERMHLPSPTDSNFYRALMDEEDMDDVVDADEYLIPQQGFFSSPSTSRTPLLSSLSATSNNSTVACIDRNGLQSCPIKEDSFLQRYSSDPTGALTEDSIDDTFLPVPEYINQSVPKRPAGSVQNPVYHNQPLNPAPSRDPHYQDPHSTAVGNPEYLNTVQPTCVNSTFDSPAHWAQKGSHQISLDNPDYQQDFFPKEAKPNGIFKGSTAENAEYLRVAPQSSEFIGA
T8 sequence (P00533 25-1210 T790M/C797S/L858R): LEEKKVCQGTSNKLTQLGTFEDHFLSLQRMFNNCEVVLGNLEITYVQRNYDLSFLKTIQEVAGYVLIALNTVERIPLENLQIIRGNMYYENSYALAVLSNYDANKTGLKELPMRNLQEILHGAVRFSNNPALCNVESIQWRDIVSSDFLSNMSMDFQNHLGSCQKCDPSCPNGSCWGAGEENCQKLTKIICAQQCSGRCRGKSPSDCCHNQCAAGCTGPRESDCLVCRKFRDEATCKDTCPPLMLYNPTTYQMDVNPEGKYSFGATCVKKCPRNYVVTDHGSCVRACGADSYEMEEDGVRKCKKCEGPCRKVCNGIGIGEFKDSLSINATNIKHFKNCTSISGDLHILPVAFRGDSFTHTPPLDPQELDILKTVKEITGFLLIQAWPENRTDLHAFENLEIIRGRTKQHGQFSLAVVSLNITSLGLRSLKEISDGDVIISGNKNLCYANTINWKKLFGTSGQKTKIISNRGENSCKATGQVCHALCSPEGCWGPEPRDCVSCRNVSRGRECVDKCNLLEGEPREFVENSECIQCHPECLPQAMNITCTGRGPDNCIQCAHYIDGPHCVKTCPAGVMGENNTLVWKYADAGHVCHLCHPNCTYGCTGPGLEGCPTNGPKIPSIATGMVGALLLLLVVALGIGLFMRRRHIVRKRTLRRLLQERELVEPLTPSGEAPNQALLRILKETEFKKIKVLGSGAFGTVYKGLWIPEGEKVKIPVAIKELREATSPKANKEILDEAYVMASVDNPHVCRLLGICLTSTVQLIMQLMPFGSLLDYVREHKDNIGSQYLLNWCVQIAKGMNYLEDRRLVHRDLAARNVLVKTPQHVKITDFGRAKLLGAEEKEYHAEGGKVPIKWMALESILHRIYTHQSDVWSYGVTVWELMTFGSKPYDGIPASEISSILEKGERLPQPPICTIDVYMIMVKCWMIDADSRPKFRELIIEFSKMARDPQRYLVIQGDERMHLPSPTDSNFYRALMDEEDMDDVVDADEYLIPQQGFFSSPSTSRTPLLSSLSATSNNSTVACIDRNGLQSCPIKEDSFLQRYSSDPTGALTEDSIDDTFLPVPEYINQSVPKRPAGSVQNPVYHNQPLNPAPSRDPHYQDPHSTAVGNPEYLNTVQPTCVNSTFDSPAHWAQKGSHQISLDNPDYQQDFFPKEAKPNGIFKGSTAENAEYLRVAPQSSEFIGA
T6 sequence (P00533 with tags, fused parts or gaps DEL746-750/T790M/C797S limits assumed): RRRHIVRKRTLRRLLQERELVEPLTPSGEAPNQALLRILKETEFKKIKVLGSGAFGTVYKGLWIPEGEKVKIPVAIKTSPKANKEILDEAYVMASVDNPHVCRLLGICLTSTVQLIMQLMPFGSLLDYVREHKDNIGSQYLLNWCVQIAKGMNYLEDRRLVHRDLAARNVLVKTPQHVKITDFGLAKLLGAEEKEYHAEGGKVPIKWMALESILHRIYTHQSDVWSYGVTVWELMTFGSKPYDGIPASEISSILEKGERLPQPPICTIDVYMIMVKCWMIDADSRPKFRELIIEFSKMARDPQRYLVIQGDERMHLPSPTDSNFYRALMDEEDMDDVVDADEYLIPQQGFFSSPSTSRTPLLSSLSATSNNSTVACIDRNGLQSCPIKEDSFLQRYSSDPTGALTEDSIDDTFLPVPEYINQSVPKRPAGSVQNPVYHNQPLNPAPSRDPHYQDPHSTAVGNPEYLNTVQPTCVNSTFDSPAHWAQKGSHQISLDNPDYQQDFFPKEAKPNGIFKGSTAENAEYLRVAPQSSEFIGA

Row | Compound | pIC50 (EGFR (C797S L858R)) | pIC50 (EGFR L858R/T790M) | pIC50 (EGFR L858R) | pIC50 (EGFR Exon19Del/T790M) | pIC50 (EGFR Exon19Del) | pIC50 [1] | GI50 [2, 3] [nM] | GI50 [2, 4] [nM] | GI50 [2, 5] [nM] | GI50 [2, 6] [nM] | GI50 [2, 7] [nM] | GI50 [2, 8] [nM] | GI50 [2, 9] [nM] | GI50 (A-431; [10]) [nM] | pIC50 (EGFR (d746-750 C797S)) | pIC50 (EGFR[T790M/C797S/L858R]) | GI50 (PC-9) [nM] | pIC50 (EGFR wild type) | GI50 (A-431; A-431 cells) [nM]
1 | Cc1cc2cc(n1)-c1cnn(C)c1OCCN1CC3CCC(C3)(C1)n1c(nc3ccc(N(C)CCCN(C)C)cc31)NC2=O (single isomer, unassigned) [Example B45B] | 7.85 | 8.42 | 7.34 | 8.55 | 8.28 | 8.77 | 2 | 2 | 4 | 2 | 2 | 11 | 2 | 1680 | 8.62 | 8.85 | 10 | 5.99 | –
2 | COCCN(C)c1ccc2nc3n(c2c1)C12CCC(CN(CCOc4c(cnn4C)-c4cc(cc(C)n4)C(=O)N3)C1)C2 (single isomer, unassigned) [Example B46A] | < 5.30 | < 5.30 | < 5.30 | < 5.30 | < 5.30 | < 5.30 | 977 | 492 | 2500 | 198 | 919 | 7610 | 497 | – | < 5.30 | < 5.30 | 3050 | < 5.30 | 7830
3 | COCCN(C)c1ccc2nc3n(c2c1)C12CCC(CN(CCOc4c(cnn4C)-c4cc(cc(C)n4)C(=O)N3)C1)C2 (single isomer, unassigned) [Example B46B] | 6.93 | 7.92 | 6.42 | 8.14 | 7.55 | 8.43 | 2 | 2 | – | 2 | – | 36 | 2 | – | 8.12 | 8.33 | 25 | < 5.30 | 1360
4 | Cc1cc2cc(n1)-c1cnn(C)c1OCCN1CC3CCC(C3)(C1)n1c(nc3ccc(N(C)CCN(C)C)cc31)NC2=O (single isomer, unassigned) [Example B47B] | 7.85 | 8.46 | 7.23 | 8.55 | 8.24 | 8.72 | 2 | 2 | 9 | 2 | 2 | 11 | 2 | 378 | 8.55 | 8.82 | 12 | 6.09 | –
5 | Cc1cc2cc(n1)-c1cnn(C)c1OCCN1CC3CCC(C3)(C1)n1c(nc3ccc(N4CC(N5CCOCC5)C4)cc31)NC2=O (single isomer, unassigned) [Example B48A] | 5.53 | < 5.30 | < 5.30 | < 5.30 | 5.65 | < 5.30 | 114 | 172 | 426 | 34 | 168 | 846 | 140 | – | 5.99 | < 5.30 | 973 | < 5.30 | 7000
6 | Cc1cc2cc(n1)-c1cnn(C)c1OCCN1CC3CCC(C3)(C1)n1c(nc3ccc(N4CC(N5CCOCC5)C4)cc31)NC2=O (single isomer, unassigned) [Example B48B] | 7.36 | 8.17 | 6.85 | 8.16 | 7.89 | 8.47 | 2 | 2 | 6 | 2 | 2 | 13 | 2 | – | 8.35 | 8.52 | 12 | 5.53 | 1370
7 | Cc1cc2cc(n1)-c1cnn(C)c1OCCN1CC3CCC(C3)(C1)n1c(nc3ccc(N4CCC5(CN(C)C5)C4)cc31)NC2=O (single isomer, unassigned) [Example B50B] | 8.15 | 8.52 | 7.59 | 8.44 | 8.29 | 8.62 | 2 | 2 | 4 | 2 | 2 | 7 | 2 | 1570 | 8.68 | 8.82 | 8 | 6.38 | –
8 | Cc1cc2cc(n1)-c1cnn(C)c1OCCN1CC3CCC(C3)(C1)n1c(nc3ccc(N4CCC5(CCN(C)CC5)C4)cc31)NC2=O (single isomer, unassigned) [Example B51B] | 8.08 | 8.23 | 7.68 | 8.25 | 8.21 | 8.47 | 2 | 2 | 4 | 2 | 2 | 8 | 2 | 3030 | 8.46 | 8.54 | 8 | 6.26 | –
9 | Cc1cc2cc(n1)-c1cnn(C)c1OCCN1CC3CCC(C3)(C1)n1c(nc3ccc(N4CCC5(CCN(C)C5)CC4)cc31)NC2=O (single isomer, unassigned) [Example B52A] | < 5.30 | < 5.30 | < 5.30 | 7.00 | < 5.30 | 7.43 | 102 | 169 | 180 | 41 | 191 | 176 | 363 | – | 5.69 | < 5.30 | 311 | < 5.30 | 7020
10 | Cc1cc2cc(n1)-c1cnn(C)c1OCCN1CC3CCC(C3)(C1)n1c(nc3ccc(N4CCC5(CCN(C)C5)CC4)cc31)NC2=O (single isomer, unassigned) [Example B52B] | 8.49 | 8.46 | 8.22 | 8.35 | 8.27 | 8.70 | 2 | 2 | 2 | 2 | 2 | 2 | 7 | – | 8.62 | 8.80 | 4 | 8.08 | 879
